Activity calls are given as the source filed them. The rule behind the calls is not given here.
Tests used:
[1] = test system: MGC-803; assay: Antiproliferative activity against human MGC803 cells measured after 48 hrs by CCK8 assay; assay type: functional, cell-based; details: MGC-803, 48 h
[2] = test system: MGC-803; assay: Antiproliferative activity against human MGC803 cells measured after 48 hrs by MTT assay; assay type: functional, cell-based; details: MGC-803, 48 h
[3] = test system: PC-3; assay: Antiproliferative activity against human PC3 cells measured after 48 hrs by MTT assay; assay type: functional, cell-based; details: PC-3, 48 h
[4] = test system: HepG2; assay: Antiproliferative activity against human HepG2 cells measured after 48 hrs by MTT assay; assay type: functional, cell-based; details: HepG2, 48 h
[5] = test system: MGC-803; assay: Induction of apoptosis in human MGC803 cells assessed as necrotic cells at 90 nM after 48 hrs by Annexin V-FITC/propidium iodide staining based flow cytometry (reference value: 0.3%); assay type: functional
[6] = test system: MGC-803; assay: Induction of apoptosis in human MGC803 cells assessed as up regulation of DR5 expression at 30 to 90 nM after 48 hrs by Western blot analysis; assay type: functional, cell-based
[7] = molecular target: Tubulin; assay: Inhibition of tubulin (unknown origin) polymerization measured every minute by spectrophotometric method; assay type: protein-complex assay, Homo sapiens
[8] = molecular target: Cyclin-dependent kinase 1 (Homo sapiens) (UniProt P06493); assay: Effect on CDK1 phosphorylation at Tyr15 residues in human MGC803 cells at 30 to 90 nM by Western blot analysis; assay type: cell-based
[9] = test system: MGC-803; assay: Induction of apoptosis in human MGC803 cells assessed as late apoptotic cells at 30 nM after 48 hrs by Annexin V-FITC/propidium iodide staining based flow cytometry (reference value: 2.9%); assay type: functional
[10] = test system: MGC-803; assay: Cell cycle arrest in human MGC803 cells assessed as decrease in accumulation at G1-phase at 30 to 90 nM measured after 48 hrs by propidium iodide staining based flow cytometry; assay type: functional
[11] = test system: MGC-803; assay: Down regulation of CDK1 expression in human MGC803 cells at 30 to 90 nM in presence of proteasome inhibitor MG132 by Western blot analysis; assay type: functional, cell-based
[12] = test system: MGC-803; assay: Induction of apoptosis in human MGC803 cells assessed as down regulation of XIAP expression after 48 hrs by Western blot analysis; assay type: functional, cell-based
[13] = test system: MGC-803; assay: Induction of apoptosis in human MGC803 cells assessed as up regulation of Bax expression at 30 to 90 nM after 48 hrs by Western blot analysis; assay type: functional, cell-based
[14] = test system: MGC-803; assay: Induction of apoptosis in human MGC803 cells assessed as necrotic cells at 30 nM after 48 hrs by Annexin V-FITC/propidium iodide staining based flow cytometry (reference value: 0.3%); assay type: functional
[15] = molecular target: T1, Cyclin-dependent kinase 1/cyclin B1 (Homo sapiens) (UniProt P06493+P14635); assay: Effect on CDK1-cyclin B1 protein-protein interaction in human MGC803 cells assessed as change in CDK1 expression at 30 to 90 nM measured after 48 hrs by immunoprecipitation based Western blot analysis; assay type: cell-based
[16] = test system: MGC-803; assay: Induction of apoptosis in human MGC803 cells assessed as viable cells at 60 nM after 48 hrs by Annexin V-FITC/propidium iodide staining based flow cytometry (reference value: 94.9%); assay type: functional; details: MGC-803, 48 h, read-out: Activity
[17] = test system: MGC-803; assay: Induction of apoptosis in human MGC803 cells after 48 hrs by Annexin V-FITC/propidium iodide staining based flow cytometry; assay type: functional, cell-based
[18] = test system: MGC-803; assay: Cell cycle arrest in human MGC803 cells assessed as decrease in accumulation at S-phase at 30 to 90 nM measured after 48 hrs by propidium iodide staining based flow cytometry; assay type: functional
[19] = test system: MGC-803; assay: Antiproliferative activity against human MGC803 cells assessed as cell viability at 90 nM measured after 7 days by crystal violet staining based assay relative to control; assay type: functional; details: MGC-803, 168 h, read-out: Activity
[20] = test system: MGC-803; assay: Up regulation of CDC25C expression in human MGC803 cells at 30 to 90 nM by Western blot analysis; assay type: functional, cell-based
[21] = test system: MGC-803; assay: Antiproliferative activity against human MGC803 cells assessed as cell viability at 120 nM measured after 7 days by crystal violet staining based assay relative to control; assay type: functional; details: MGC-803, 168 h, read-out: Activity
[22] = test system: MGC-803; assay: Induction of apoptosis in human MGC803 cells assessed as early apoptotic cells at 30 nM after 48 hrs by Annexin V-FITC/propidium iodide staining based flow cytometry (reference value: 1.9%); assay type: functional
[23] = test system: MGC-803; assay: Induction of apoptosis in human MGC803 cells assessed as late apoptotic cells at 90 nM after 48 hrs by Annexin V-FITC/propidium iodide staining based flow cytometry (reference value: 2.9%); assay type: functional
[24] = test system: MGC-803; assay: Antiproliferative activity against human MGC803 cells assessed as cell viability at 30 nM measured after 7 days by crystal violet staining based assay relative to control; assay type: functional; details: MGC-803, 168 h, read-out: Activity
[25] = test system: MGC-803; assay: Antiproliferative activity against human MGC803 cells assessed as cell viability at 60 nM measured after 7 days by crystal violet staining based assay relative to control; assay type: functional; details: MGC-803, 168 h, read-out: Activity
[26] = test system: MGC-803; assay: Inhibition of colony formation in human MGC803 cells after 7 days by crystal violet staining based assay; assay type: functional, cell-based
[27] = test system: MGC-803; assay: Induction of apoptosis in human MGC803 cells assessed as necrotic cells at 60 nM after 48 hrs by Annexin V-FITC/propidium iodide staining based flow cytometry (reference value: 0.3%); assay type: functional
[28] = molecular target: Tubulin beta (Homo sapiens) (UniProt P68371+Q9H4B7+Q13509+P04350+Q3ZCM7+P07437+Q13885+Q9BVA1+Q9BUF5+A6NNZ2); assay: Inhibition of EBI binding to beta-tubulin colchicine binding site in human MGC803 cells at 0.4 to 4 uM preincubated for 2 hrs followed by EBI addition and measured after 2 hrs by Western blot analysis; assay type: cell-based
[29] = test system: MGC-803; assay: Induction of apoptosis in human MGC803 cells assessed as early apoptotic cells at 60 nM after 48 hrs by Annexin V-FITC/propidium iodide staining based flow cytometry (reference value: 1.9%); assay type: functional
[30] = test system: MGC-803; assay: Cell cycle arrest in human MGC803 cells assessed as accumulation at G2/M-phase at 90 nM measured after 48 hrs by propidium iodide staining based flow cytometry relative to control; assay type: functional
[31] = test system: MGC-803; assay: Down regulation of CDK1 expression in human MGC803 cells by Western blot analysis; assay type: functional, cell-based
[32] = test system: MGC-803; assay: Induction of apoptosis in human MGC803 cells assessed as viable cells at 30 nM after 48 hrs by Annexin V-FITC/propidium iodide staining based flow cytometry (reference value: 94.9%); assay type: functional; details: MGC-803, 48 h, read-out: Activity
[33] = test system: MGC-803; assay: Induction of apoptosis in human MGC803 cells assessed as late apoptotic cells at 60 nM after 48 hrs by Annexin V-FITC/propidium iodide staining based flow cytometry (reference value: 2.9%); assay type: functional
[34] = test system: MGC-803; assay: Induction of apoptosis in human MGC803 cells assessed as viable cells at 90 nM after 48 hrs by Annexin V-FITC/propidium iodide staining based flow cytometry (reference value: 94.9%); assay type: functional; details: MGC-803, 48 h, read-out: Activity
[35] = molecular target: Tubulin (Homo sapiens) (UniProt P68371+Q9H4B7+P0DPH7+P68366+Q13509+Q71U36+P04350+Q3ZCM7+P07437+P68363+Q9BQE3+Q6PEY2+Q13885+Q9BVA1+Q9BUF5); assay: Induction of microtubule depolymerization in human MGC803 cells at 60 to 90 nM measured after 48 hrs by DAPI staining based laser confocal microscopic analysis; assay type: cell-based
[36] = molecular target: T1, Cyclin-dependent kinase 1/cyclin B1 (Homo sapiens); assay: Effect on CDK1-cyclin B1 protein-protein interaction in human MGC803 cells assessed as change in cyclin B1 expression at 30 to 90 nM measured after 48 hrs by immunoprecipitation based Western blot analysis; assay type: cell-based
[37] = test system: MGC-803; assay: Induction of apoptosis in human MGC803 cells assessed as early apoptotic cells at 90 nM after 48 hrs by Annexin V-FITC/propidium iodide staining based flow cytometry (reference value: 1.9%); assay type: functional
[38] = test system: MGC-803; assay: Cell cycle arrest in human MGC803 cells assessed as accumulation at G2/M-phase measured after 48 hrs by propidium iodide staining based flow cytometry; assay type: functional
[39] = test system: MGC-803; assay: Induction of apoptosis in human MGC803 cells assessed as down regulation of Bcl-xl expression after 48 hrs by Western blot analysis; assay type: functional, cell-based
[40] = test system: MGC-803; assay: Induction of apoptosis in human MGC803 cells assessed as up regulation of cleaved PARP expression at 30 to 90 nM after 48 hrs by Western blot analysis; assay type: functional, cell-based

T1 sequence (P06493 whole entry, looked up): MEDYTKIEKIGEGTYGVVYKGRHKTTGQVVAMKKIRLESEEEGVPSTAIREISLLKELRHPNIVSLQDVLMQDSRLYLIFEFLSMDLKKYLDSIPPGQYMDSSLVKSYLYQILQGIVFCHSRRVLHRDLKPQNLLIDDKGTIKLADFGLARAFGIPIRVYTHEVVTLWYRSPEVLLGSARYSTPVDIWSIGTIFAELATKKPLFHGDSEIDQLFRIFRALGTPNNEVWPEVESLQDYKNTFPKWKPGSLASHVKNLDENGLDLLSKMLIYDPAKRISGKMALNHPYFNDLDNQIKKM
T1 sequence (P14635 whole entry, looked up): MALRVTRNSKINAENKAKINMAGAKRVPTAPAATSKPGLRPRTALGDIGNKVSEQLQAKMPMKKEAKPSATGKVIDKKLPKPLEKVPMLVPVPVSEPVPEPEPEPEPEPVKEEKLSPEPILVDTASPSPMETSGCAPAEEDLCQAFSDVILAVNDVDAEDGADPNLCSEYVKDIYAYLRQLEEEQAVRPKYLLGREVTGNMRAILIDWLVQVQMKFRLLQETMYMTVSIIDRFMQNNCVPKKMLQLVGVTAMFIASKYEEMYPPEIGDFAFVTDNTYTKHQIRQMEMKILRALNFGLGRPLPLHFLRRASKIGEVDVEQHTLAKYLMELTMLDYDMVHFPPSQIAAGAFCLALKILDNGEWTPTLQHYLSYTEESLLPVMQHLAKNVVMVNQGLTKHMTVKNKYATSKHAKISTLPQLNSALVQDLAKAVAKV
Cyclin-dependent kinase 1 (Homo sapiens), sequence (P06493 whole entry, looked up): as the sequence (P06493 whole entry, looked up) above

Compound: COc1cc(N2C(=O)[C@H](c3cccs3)[C@H]2c2cccc(N=[N+]=[N-])c2)cc(OC)c1OC
- IC50 [1]: 0.106 µM

Compound: COc1ccc(CN(C(=O)Cn2cc(COc3cc(=O)oc4ccccc34)nn2)c2cc(OC)c(OC)c(OC)c2)cc1
- IC50 [2]: 3.66 µM
- IC50 [3]: 5.14 µM
- IC50 [4]: 6.25 µM

Compound: COc1ccc(CN(C(=O)Cn2cc(Cn3ccc4ccccc43)nn2)c2cc(OC)c(OC)c(OC)c2)cc1
- IC50 [2]: 42.6 µM
- IC50 [3]: 2.39 µM
- IC50 [4]: 40.1 µM

Compound: COc1ccc(CN(C(=O)Cn2cc(CSc3nnc(-c4ccccc4)c(-c4ccccc4)n3)nn2)c2cc(OC)c(OC)c(OC)c2)cc1
- IC50 [2]: 1.52 µM
- IC50 [3]: 19.6 µM
- IC50 [4]: 21.8 µM

Compound: COc1ccc(CN(C(=O)Cn2cc(CNS(=O)(=O)c3ccc(C)cc3)nn2)c2cc(OC)c(OC)c(OC)c2)cc1
- IC50 [2]: 1.58 µM
- IC50 [3]: 12.4 µM
- IC50 [4]: 30.5 µM

Compound: COc1cc2c(c(OC)c1OC)-c1ccc(OC)c(=O)cc1[C@@H](NC(C)=O)CC2 [COLCHICINE]
- IC50 [2]: 0.27 µM
- IC50 [3]: 0.59 µM
- IC50 [4]: 4.6 µM

Compound: COc1ccc(CN(C(=O)Cn2cc(CN3c4ccccc4Sc4ccc(C(F)(F)F)cc43)nn2)c2cc(OC)c(OC)c(OC)c2)cc1
- IC50 [2]: > 80 µM
- IC50 [3]: > 80 µM
- IC50 [4]: > 80 µM

Compound: COc1ccc(CN(C(=O)Cn2cc(CN3c4ccccc4Sc4ccccc43)nn2)c2cc(OC)c(OC)c(OC)c2)cc1
- IC50 [2]: > 80 µM
- IC50 [3]: > 80 µM
- IC50 [4]: > 80 µM

Compound: C#CCOc1ccc2c(C)cc(=O)oc2c1
- IC50 [2]: > 80 µM
- IC50 [3]: > 80 µM
- IC50 [4]: > 80 µM

Compound: COc1ccc(CN(C(=O)Cn2cc(COc3ccc4c(C)cc(=O)oc4c3)nn2)c2cc(OC)c(OC)c(OC)c2)cc1
- Activity [5]: 0.4%
- Activity [6]: Active
- IC50 [7]: 2.16 µM
- Activity [8]: inactive
- Activity [9]: 3.1%
- Activity [10]: Active
- Activity [11]: Active
- Activity [12]: Dose-dependent effect
- Activity [13]: Active
- Activity [14]: 0.2%
- Activity [15]: inactive
- viability at 0.06 µM [16]: 92.1%
- Activity [17]: Dose-dependent effect
- Activity [18]: Active
- viability at 0.09 µM [19]: 31.8%
- Activity [20]: inactive
- viability at 0.12 µM [21]: 16%
- Activity [22]: 2.1%
- Activity [23]: 36.8%
- viability at 0.03 µM [24]: 85.9%
- viability at 0.06 µM [25]: 62.6%
- inhibition [26]: Dose-dependent effect
- Activity [27]: 0.3%
- inhibition [28]: Active
- Activity [29]: 3.1%
- Activity [30]: Active
- IC50 [2]: 0.13 µM
- IC50 [3]: 0.34 µM
- Activity [31]: Dose-dependent effect
- viability at 0.03 µM [32]: 94.5%
- Activity [33]: 4.5%
- viability at 0.09 µM [34]: 37.9%
- Activity [35]: Active
- IC50 [4]: 1.74 µM
- Activity [36]: inactive
- Activity [37]: 25%
- Activity [38]: Dose-dependent effect
- Activity [39]: Dose-dependent effect
- Activity [40]: Active

— ChEMBL document CHEMBL4480396 (Eur J Med Chem, 2019)
